Results from patent publication US8017584B2, “GD3-mimetic peptides” (Otsuka Pharmaceutical Co., Ltd., priority 2000, dated 2011).

Key:
[1] = test system: binding between GD3 and 4F6 (anti-GD3 antibody); assay: Inhibition by immobilized MAPs of binding between GD3 and 4F6 (Example 5(3), FIG. 4); design: species or system mouse; conditions: immobilized MAP or GD3 absorbs 4F6
Method: (3) The binding affinity shown in FIG. 3 was investigated in another method. Briefly, MAP samples having a variety of concentrations shown on the X-axis in FIG. 4 were provided. Each sample was immobilized onto the wells of a 96-well plate, and the wells were allowed to react with 4F6 (100 μL/well) at 4° C. overnight. On the following day, the supernatant (80 μL) was collected and added to the wells of another plate to which GD3 had been immobilized in advance (100 ng/well) for reaction at room temperature for 2 hours. After completion of reaction, the amount of antibody 4F6 that had been condensed with GD3 (i.e., that had not been absorbed by MAP) was detected and quantitatively determined through the method described (2) above, whereby inhibitory effect of MAP on binding of GD3 to 4F6 was investigated. The test was performed in triplicate, and the values in the graph are “mean ±SD.”

[2] = test system: T-cell-rich lymphocytes / IL-2-dependent CTLL2 cells; assay: Cell response test: IL-2 activity (3H thymidine up-take of CTLL2 cells) in supernatant of spleen cells of mice immunized with R4 peptide (R4-KLH); format: cell-based, mouse; conditions: mice immunized with R4 peptide
Method: Using a fusion peptide R4-KLH obtained in Example 3 (4) between GD3R4 and KLH or a MAP form fusion peptide R4MAP-KLH created between GD3R4 and KLH, immunization was performed as described in (1) above.
Briefly, an emulsion mixed with an adjuvant (1:1, by volume) was administered to each member of groups of mice, each group consisting of 3 mice (CD-1), in an amount of 100 μL/mouse (for one administration (ip), peptide 30 μg/mouse) for immunization. In the case of R4-KLH, administration was performed every one week for one month, and subsequently every two weeks for one month; and in the case of R4MAP-KLH, every one week for 2 months. In any case, 4 days after the final immunization, blood was collected to thereby prepare antiserum samples.
(§1) The spleen aseptically removed from each of the above-immunized mice was minced in a 10% FCS-supplemented RPMI 1640 medium. By use of a nylon wool column, T-cell-rich lymphocytes were prepared and the cells were counted. The above medium containing the cells in an amount of 10^5 cells per 150 μL was added to each of the wells of a culture plate. PHA was added so as to attain a final concentration of 1 μg/mL. A peptide of the present invention or any of different gangliosides in PBS was added, and the mixture was incubated for 96 hours. A supernatant (100 μL) was obtained from each well. The IL-2 activity of the supernatant was determined through use of IL-2-dependent mouse cells, CTLL2. Briefly, the supernatant (100 μL) diluted 2 to 50-fold with a medium was added to the wells in an amount of 10^4 CTLL2 cells/well, followed by incubation at 37° C. for 48 hours. Subsequently, 3H-thymidine (0.5 μCi) was added to each well, followed by incubation for 6 hours. CTLL2 cells were recovered on a paper filter and counted for 3H.

[3] = test system: T-cell-rich lymphocytes / IL-2-dependent CTLL2 cells; assay: Cell response test: IL-2 activity (3H thymidine up-take of CTLL2 cells) in supernatant of spleen cells of mice immunized with GD3; format: cell-based, mouse; conditions: mice immunized with GD3
Method: Similar to the case of immunization with R4-KLH, antiserum samples were also prepared through immunization with GD3 (30 μg).
as §1

[4] = test system: binding between GD3 and 4F6; assay: Inhibition by exogenously added MAPs of binding between GD3 and 4F6 (Example 5(4), FIG. 5); design: species or system mouse
Method: (4) Next, investigation was made as to whether binding between GD3R3 or GD3R4 and 4F6 occurred at the GD3 binding site of 4F6. To the wells of a plate to which GD3 had been immobilized (100 ng/well), each of the MAP samples having a variety of concentrations shown on the X-axis in FIG. 5 and 4F6 (100 μL/well) were simultaneously added, whereby an inhibitory test was performed. The test was performed in triplicate, and the values in the graph are “mean ±SD.”

[5] = test system: anti-GD3 antibody 4F6; assay: ELISA of MAPs immobilized at various amounts with 4F6 (Example 5(2), FIG. 3); format: binding, mouse; conditions: MAPs or GD3 immobilized at various amounts
Excerpt: (1) In a manner similar to that described in Example 3, peptides of N-terminus 9 amino acid residues or C-terminus 9 amino acid residues of GD3R1, GD3R2, GD3R3, or GD3R4. The nomenclature and sequences of respective peptides employed in the present test are shown in FIG. 2 These were employed as multi-antigen peptides (MAPs). (2) In order to extend the research on bonding between the anti-GD3 antibody 4F6 and each of the GD3-mimetic peptides shown in FIG. 1, multi-antigen peptides (MAPs) were subjected to ELISA. MAP samples having a variety of concentrations shown on the X-axis in FIG. 3 were provided, and each sample was immobilized onto the wells of a 96-well plate. Subsequently, the wells were blocked with a blocking solution (TBS supplemented with 1% BSA, 0.1% skim milk, and 0.02% Tween 20) at 4° C. overnight. 4F6 (hybridoma supernatant: used in the neat form) was added (100 μL/well) for reaction at room temperature for 2 hours. After completion of reaction, the supernatant was discarded, and the wells were washed with a washing solution (TBS supplemented with 1% FBS and 0.05% Tween 20) six times. Subsequently, the wells were allowed to react with peroxidase-labeled anti-mouse IgG (diluted 1,000-fold with a blocking solution) at room temperature for 2 hours. The wells were again washed with a washing solution four times, and the amount of peroxidase enzyme remaining in each well was detected and quantitatively determined with the substrate TMB, whereby binding of MAP to 4F6 was investigated. The test was performed in triplicate, and the values in the graph are “mean ±SD.”

[6] = test system: binding between GD3 and 4F6; assay: Inhibition by nine-residue MAPs of binding between GD3 and 4F6 (Example 5(5), FIG. 6); design: species or system mouse; conditions: nine-residue MAP compared with the 15 residues
Method: Next, in an attempt to determine the domain required for establishing binding to anti-GD3 antibody 4F6 in GD3-mimetic peptides, an MAP of nine N-terminus residues of GD3R3 peptide and an MAP of nine C-terminus residues of the same GD3R3 peptide as shown in FIG. 2 were synthesized, their binding to 4F6 was studied by means of ELISA. ELISA was performed was performed in triplicate, and the values in the graphs are “mean ±SD.”

[7] = PHA 1 μg/mL + stimulant 0.5 μg/ml, supernatant dilution ½
[8] = stimulant 0.5 μg/ml, supernatant dilution 1/20
[9] = stimulant 0.5 μg/ml, supernatant dilution 1/50
[10] = stimulant 0.5 μg/ml, supernatant dilution ⅕
[11] = stimulant 1 μg/ml, supernatant dilution 1/20
[12] = stimulant 1 μg/ml, supernatant dilution 1/50
[13] = stimulant 1 μg/ml, supernatant dilution ½
[14] = stimulant 1 μg/ml, supernatant dilution ⅕
[15] = stimulant 2 μg/ml, supernatant dilution 1/20
[16] = stimulant 2 μg/ml, supernatant dilution 1/50
[17] = stimulant 2 μg/ml, supernatant dilution ½
[18] = stimulant 2 μg/ml, supernatant dilution ⅕
[19] = stimulant 5 μg/ml, supernatant dilution 1/20
[20] = stimulant 5 μg/ml, supernatant dilution 1/50
[21] = stimulant 5 μg/ml, supernatant dilution ½
[22] = stimulant 5 μg/ml, supernatant dilution ⅕

NeuAc α2-8 NeuAc α2-3 Gal β1-4 Glc β1-1 Cer [GD3, reference compound]
inhibition of GD3 binding to 4F6 by immobilized sample (words, FIG. 4) [1]: inhibit GD3 from binding to the antibody
3H Thymidine up-take into CTLL2 cells, mean ± SE (4 wells) [2, 7]: 2635 ± 308
3H Thymidine up-take into CTLL2 cells, mean ± SE (4 wells) [2, 8]: 850 ± 87
3H Thymidine up-take into CTLL2 cells, mean ± SE (4 wells) [2, 9]: 169 ± 25
3H Thymidine up-take into CTLL2 cells, mean ± SE (4 wells) [2, 10]: 1792 ± 154
3H Thymidine up-take into CTLL2 cells, mean ± SE (4 wells) [2, 11]: 794 ± 82
3H Thymidine up-take into CTLL2 cells, mean ± SE (4 wells) [2, 12]: 202 ± 24
3H Thymidine up-take into CTLL2 cells, mean ± SE (4 wells) [2, 13]: 2721 ± 284
3H Thymidine up-take into CTLL2 cells, mean ± SE (4 wells) [2, 14]: 1658 ± 134
3H Thymidine up-take into CTLL2 cells, mean ± SE (4 wells) [2, 15]: 809 ± 74
3H Thymidine up-take into CTLL2 cells, mean ± SE (4 wells) [2, 16]: 212 ± 28
3H Thymidine up-take into CTLL2 cells, mean ± SE (4 wells) [2, 17]: 2797 ± 295
3H Thymidine up-take into CTLL2 cells, mean ± SE (4 wells) [2, 18]: 1722 ± 163
3H Thymidine up-take into CTLL2 cells, mean ± SE (4 wells) [2, 19]: 764 ± 68
3H Thymidine up-take into CTLL2 cells, mean ± SE (4 wells) [2, 20]: 184 ± 23
3H Thymidine up-take into CTLL2 cells, mean ± SE (4 wells) [2, 21]: 2619 ± 316
3H Thymidine up-take into CTLL2 cells, mean ± SE (4 wells) [2, 22]: 1636 ± 145
3H Thymidine up-take into CTLL2 cells, mean ± SE (4 wells) [3, 7]: 2795 ± 175
3H Thymidine up-take into CTLL2 cells, mean ± SE (4 wells) [3, 8]: 810 ± 72
3H Thymidine up-take into CTLL2 cells, mean ± SE (4 wells) [3, 9]: 207 ± 22
3H Thymidine up-take into CTLL2 cells, mean ± SE (4 wells) [3, 10]: 1876 ± 152
3H Thymidine up-take into CTLL2 cells, mean ± SE (4 wells) [3, 11]: 762 ± 55
3H Thymidine up-take into CTLL2 cells, mean ± SE (4 wells) [3, 12]: 186 ± 27
3H Thymidine up-take into CTLL2 cells, mean ± SE (4 wells) [3, 13]: 2568 ± 235
3H Thymidine up-take into CTLL2 cells, mean ± SE (4 wells) [3, 14]: 1834 ± 169
3H Thymidine up-take into CTLL2 cells, mean ± SE (4 wells) [3, 15]: 758 ± 61
3H Thymidine up-take into CTLL2 cells, mean ± SE (4 wells) [3, 16]: 197 ± 28
3H Thymidine up-take into CTLL2 cells, mean ± SE (4 wells) [3, 17]: 2453 ± 264
3H Thymidine up-take into CTLL2 cells, mean ± SE (4 wells) [3, 18]: 1901 ± 188
3H Thymidine up-take into CTLL2 cells, mean ± SE (4 wells) [3, 19]: 794 ± 68
3H Thymidine up-take into CTLL2 cells, mean ± SE (4 wells) [3, 20]: 179 ± 23
3H Thymidine up-take into CTLL2 cells, mean ± SE (4 wells) [3, 21]: 2656 ± 257
3H Thymidine up-take into CTLL2 cells, mean ± SE (4 wells) [3, 22]: 1857 ± 185
inhibitory effect of exogenously added sample on binding between GD3 and 4F6 (words, FIG. 5) ([4]; added simultaneously with 4F6 to GD3 100 ng/well): exhibited inhibitory effect
order of binding strength to 4F6 ([4]; deduced from FIG. 5): GD3>GD3R3>GD3R4
binding of 4F6 to immobilized sample (words, FIG. 3) [5]: declined from the concentration 0.8 μg/well and higher

GD3R3C9: MAP of nine C-terminus residues of GD3R3 peptide (YAQRFFLLS)
ability to inhibit binding between GD3 and 4F6 (words, FIG. 6) [6]: comparable ability to the 15 residues
